Measured values from patent US20040097734A1, “Aryl- and heteroarylcarbonylpiperazines and their use for the treatment of benign and malignant oncoses” (priority 2002, published 2004).
Converted amounts (≈) assume the structure as drawn. Read-outs that look alike come from different tables or passages of the source.

Legend:
[1] = tested on: RKOp27 human colon carcinoma cell line; test: Cell cycle analysis by means of the RKOp27 model (XTT); assay type: cell-based; settings: RKOp27, 45 h, RKOp27 cells, read-out: XTT proliferation assay, EC50, RKOP27
Text: (§1) The substances according to the invention were investigated for their antiproliferative activity in a proliferation test on established tumor cell lines. The test used determines the cellular dehydrogenase activity and makes possible a determination of the cell vitality and indirectly the cell count. The cell lines used are the human cervical carcinoma cell line KB/HeLa, (ATCC CCL17), the ovarian adenocarcinoma cell line SKOV-3 (ATCC HTB77), the human glioblastoma cell line SF-268 (NCI 503138) and the lung carcinoma cell line NCI-H460 (NCI 503473). In addition, for the investigation of the cell cycle-specific action of the substance, an RKOp27 cell system was used (M. Schmidt et al. Oncogene 19(20):2423-9, 2000). RKO is a human colon carcinoma cell line, in which the cell cycle inhibitor p27^kip1 induced by means of the ecdysone expression system is expressed and can be led to a cell cycle arrest specifically in […]. A nonspecifically acting substance inhibits the proliferation independently of weather the RKO cell is or is not arrested in G1 or G2. Cell cycle-specific substances such as, for example, tubulin inhibitors are, however, only cytotoxic if cells are not arrested and the cell cycle is passed through. In table 1, the cytotoxic and/or growth-inhibiting activities of the compound described with/without expression of p27^kip1 are shown.
(§2) The adherently growing tumor cell lines KB/HeLa, SKOV-3, SF-268 and NCI-H460 were cultured under standard conditions in a fumigation incubator at 37° C., 5% CO2 and 95% atmospheric humidity. On experimental day 1, the cells are detached using trypsin/EDTA and pelleted by centrifugation. Subsequently, the cell pellet is resuspended in the respective culture medium at the corresponding cell count and reacted in a 96-well microtiter plate. The plates are then cultured overnight in the fumigation incubator. The test substances are prepared as 1 mg/ml stock solutions in DMSO and diluted to the appropriate concentrations on experimental day 2 using culture medium. The substances in culture medium are then added to the cells and incubated in the fumigation incubator for 45h. As a control, cells which are not treated with test substance are used. For the XTT assay, 1 mg/ml of XTT (sodium 3′-[1-(phenylaminocarbonyl)-3,4-tetrazolium]-bis(4-methoxy-6-nitro)benzenesulfonic acid) is dissolved in RPMI-1640 medium without Phenol Red. Additionally, a 0.383 mg/ml PMS (N-methyldibenzopyrazine methylsulfate) solution in phosphate-buffered saline solution (PBS) is prepared. On experimental day 4, 75 μl/well of XTT-PMS mixture is pipetted onto the cell plates which in the meantime have been incubated with the test substances for 45 h. For this, shortly before use, the XTT solution is mixed with the PMS solution in the ratio 50:1 (vol:vol). The cell plates are then incubated in the fumigation incubator for a further 3h and the optical density (OD490nm) is determined in a photometer. By means of the OD490nm determined, the percentage inhibition is calculated relative to the control and plotted semilogarithmically in the form of a concentration-action curve. The EC50 is calculated by means of a regression analysis from the concentration-action curve using the program Graphpad Prism.
The assay is carried out in 96-well plates. […] By comparison of the activity on induced and noninduced cells, conclusions on the mechanism of action (cell cycle specificity) of the therapeutics can be drawn. […] are inoculated in approximately three-fold higher cell count, since division no longer takes place during the assay in comparison with uninduced cells (20000 cells/well induced, 6250 cells/well not induced). The controls are untreated cells (+/−induction). The induction is carried out with 3 μM muristerone A On the 1st day, the cells are exposed (+/− muristerone A) and incubated at 37° C. for 24h. […]

[2] = tested on: human cervical carcinoma cell line KB/HeLa; test: XTT proliferation assay, KB/HeLa; assay type: cell-based; settings: KB/HeLa cells, 45 h incubation
Text: as §1, §2

[3] = tested on: lung carcinoma cell line NCI-H460; test: XTT proliferation assay, NCI-H460; assay type: cell-based; settings: Homo sapiens; NCI-H460 cells, 45 h incubation
Text: as §1, §2

[4] = tested on: ovarian adenocarcinoma cell line SKOV-3; test: XTT proliferation assay, SKOV-3; assay type: cell-based; settings: Homo sapiens, SK-OV-3; SKOV-3 cells, 45 h incubation; read-out: XTT proliferation assay, EC50, SKOV3
Text: as §1, §2

[5] = tested on: human glioblastoma cell line SF-268; test: XTT proliferation assay, SF-268; assay type: cell-based; settings: SF-268 cells, 45 h incubation
Text: as §1, §2

bovine tubulin = test: Tubulin polymerization assay; assay type: biochemical; settings: average of two independent experiments; for Inhibition of tubulin polymerization, EC50, with 30% MAPs: bovine tubulin with 30% MAPs; for Inhibition of tubulin polymerization, EC50, without MAPs: MAP-free bovine tubulin
Procedure: Selected substances were tested for inhibition of the polymerization of bovine tubulin in an in-vitro test. In this test, tubulin purified by cycles of polymerization and depolymerization is employed, which is polymerized by addition of GTP and warming. In Table 2, the EC50 values of the inhibition of polymerization of tubulin with 30% associated proteins (MAPs) and of MAP-free tubulin are indicated.
The assay is carried out based on the method of Bollag et. al. Lyophilized bovine tubulin (cytoskeleton, ML113 tubulin 30% MAPs, TL238 tubulin MAP free) is dissolved in a concentration of 2 mg/ml (ML113 in 80 mM PIPES, 0.5 mM EGTA, 2 mM MgCl2, pH6.9, 1 mM GTP) or 5 mg/ml (TL238 in 80 mM PIPES, 1 mM EGTA, 0.5 mM MgCl2, 20% (v:v) glycerol pH 6.9, 1 mM GTP). The test substances are diluted in 10% DMSO (v:v) and 5 μl of the dilutions are transferred to a 96-well microtiter plate (Nunc, half area plate). After addition of 45 μl of the tubulin solution, the polymerization is determined at 340 nm in a Spectramax 190 microtiter plate reader (Molecular devices) by means of a kinetics program at 30 sec intervals over a period of 20 min. The resulting area under curve values are used for the calculation of the inhibition with respect to the untreated control and plotted semilogarithmically in the form of a concentration-action curve. The EC50 is calculated by means of a regression analysis from the concentration-action curve using the program Graphpad Prism.

[6] = p27kip1 induced with 3 μM muristerone A (arrested)
[7] = without expression of p27kip1 (not induced)

EC50 [1, 6]	EC50 [1, 7]	EC50 [2]	EC50 [3]	EC50 [4]	EC50 [5]	melting point	Inhibition of tubulin polymerization, EC50, with 30% MAPs (bovine tubulin)	Inhibition of tubulin polymerization, EC50, without MAPs (bovine tubulin)	Structure (SMILES)
> 3.16 µg/mL	0.082 µg/mL (≈ 0.213 µM)	0.166 µg/mL (≈ 0.432 µM)	0.085 µg/mL (≈ 0.221 µM)	0.082 µg/mL (≈ 0.213 µM)	0.094 µg/mL (≈ 0.244 µM)	162 to 163 °C	1.18 µg/mL		COc1cccc(N2CCN(C(=O)C3c4ccccc4-c4ccccc43)CC2)c1 [Compound 10, (9H-Fluoren-9-yl)-[4-(3-methoxyphenyl)piperazin-1-yl]methanone]
> 3.16 µg/mL	0.217 µg/mL (≈ 0.524 µM)	0.613 µg/mL (≈ 1.48 µM)	0.427 µg/mL (≈ 1.03 µM)	0.341 µg/mL (≈ 0.823 µM)	0.692 µg/mL (≈ 1.67 µM)	148 °C			COc1cc(OC)cc(N2CCN(C(=O)c3cccc4c3Cc3ccccc3-4)CC2)c1 [Compound 9, [4-(3,5-Dimethoxyphenyl)piperazin-1-yl]-(9H-fluoren-1-yl)methanone]
> 3.16 µg/mL	0.726 µg/mL (≈ 1.89 µM)	4.32 µg/mL (≈ 11.2 µM)	0.853 µg/mL (≈ 2.22 µM)	0.397 µg/mL (≈ 1.03 µM)	0.478 µg/mL (≈ 1.24 µM)		4.77 µg/mL		O=C1c2ccccc2-c2c1cccc2C(=O)N1CCN(c2cccc(O)c2)CC1 [Compound 3, 4-[4-(3-Hydroxyphenyl)piperazine-1-carbonyl]fluoren-9-one]
> 3.16 µg/mL	1.2 µg/mL (≈ 3.15 µM)	2.71 µg/mL (≈ 7.12 µM)	1.54 µg/mL (≈ 4.05 µM)	1.01 µg/mL (≈ 2.65 µM)					CSc1nsc(SC)c1C(=O)N1CCN(c2cccc(C)n2)CC1 [Compound 7, (3,5-Bismethylsulfanylisothiazol-4-yl)-[4-(6-methylpyridin-2-yl)piperazin-1-yl]methanone]
> 3.16 µg/mL	0.25 µg/mL (≈ 0.722 µM)	1.21 µg/mL (≈ 3.5 µM)	0.348 µg/mL (≈ 1 µM)	0.496 µg/mL (≈ 1.43 µM)	0.474 µg/mL (≈ 1.37 µM)	114 °C			Cc1cc(C)cc(N2CCN(C(=O)c3cnnc4ccccc34)CC2)c1 [Compound 5, Cinnolin-4-yl-[4-(3,5-dimethylphenyl)piperazin-1-yl]methanone]
> 3.16 µg/mL	0.208 µg/mL (≈ 0.485 µM)	0.555 µg/mL (≈ 1.3 µM)	0.312 µg/mL (≈ 0.728 µM)	0.4 µg/mL (≈ 0.934 µM)	0.309 µg/mL (≈ 0.721 µM)		0.86 µg/mL	1.36 µg/mL	COc1cc(OC)cc(N2CCN(C(=O)c3cccc4c3-c3ccccc3C4=O)CC2)c1 [Compound 1, 4-[4-(3,5-Dimethoxyphenyl)piperazine-1-carbonyl]fluoren-9-one]

Continued, compound first:

Structure (SMILES)	EC50 [1, 6]	EC50 [1, 7]	EC50 [2]	EC50 [3]	EC50 [4]	EC50 [5]	melting point	Inhibition of tubulin polymerization, EC50, with 30% MAPs (bovine tubulin)	Inhibition of tubulin polymerization, EC50, without MAPs (bovine tubulin)
Cc1cccc(N2CCN(C(=O)c3cccc4c3-c3ccccc3C4=O)CC2)n1 [Compound 2, 4-[4-(6-Methylpyridin-2-yl)piperazine-1-carbonyl]fluoren-9-one]	> 3.16 µg/mL	0.326 µg/mL (≈ 0.85 µM)	2.59 µg/mL (≈ 6.76 µM)	0.886 µg/mL (≈ 2.31 µM)	0.585 µg/mL (≈ 1.53 µM)	0.939 µg/mL (≈ 2.45 µM)			
Cc1cccc(N2CCN(C(=O)c3ccnn3-c3ccccc3)CC2)n1 [Compound 15, [4-(6-Methylpyridin-2-yl)piperazin-1-yl]-(2-phenyl-2H-pyrazol-3-yl)methanone]	> 3.16 µg/mL	0.022 µg/mL (≈ 0.0633 µM)	0.04 µg/mL (≈ 0.115 µM)	0.024 µg/mL (≈ 0.0691 µM)	0.018 µg/mL (≈ 0.0518 µM)	0.036 µg/mL (≈ 0.104 µM)		0.88 µg/mL	
COc1cc(OC)cc(N2CCN(C(=O)C3c4ccccc4Oc4ccccc43)CC2)c1 [Compound 12, [4-(3,5-Dimethoxyphenyl)piperazin-1-yl]-(9H-xanthen-9-yl)methanone]	> 3.16 µg/mL	0.058 µg/mL (≈ 0.135 µM)	0.08 µg/mL (≈ 0.186 µM)	0.064 µg/mL (≈ 0.149 µM)	0.029 µg/mL (≈ 0.0674 µM)	0.075 µg/mL (≈ 0.174 µM)		1.16 µg/mL	1.71 µg/mL
COc1cccc(N2CCN(C(=O)C3c4ccccc4Oc4ccccc43)CC2)c1 [Compound 13, [4-(3-Methoxyphenyl)piperazin-1-yl]-(9H-xanthen-9-yl)methanone]	> 3.16 µg/mL	0.193 µg/mL (≈ 0.482 µM)	0.628 µg/mL (≈ 1.57 µM)	0.29 µg/mL (≈ 0.724 µM)	0.293 µg/mL (≈ 0.732 µM)	0.408 µg/mL (≈ 1.02 µM)	110 °C	0.73 µg/mL	
COc1cc(OC)cc(N2CCN(C(=O)c3nccc4ccccc34)CC2)c1 [Compound 8, [4-(3,5-Dimethoxyphenyl)piperazin-1-yl]isoquinolin-1-ylmethanone]	> 3.16 µg/mL	0.291 µg/mL (≈ 0.771 µM)	0.929 µg/mL (≈ 2.46 µM)	0.439 µg/mL (≈ 1.16 µM)	0.287 µg/mL (≈ 0.76 µM)	0.775 µg/mL (≈ 2.05 µM)		5.66 µg/mL	
COc1cccc(N2CCN(C(=O)c3cccc4c3Cc3ccccc3-4)CC2)c1 [Compound 11, (9H-Fluoren-1-yl)-[4-(3-methoxyphenyl)piperazin-1-yl]methanone]							124 °C		
COc1cccc(N2CCN(C(=O)c3ccnn3-c3ccccc3)CC2)c1 [Compound 14, [4-(3-Methoxyphenyl)piperazin-1-yl]-(2-phenyl-2H-pyrazol-3-yl)methanone]	> 3.16 µg/mL	0.006 µg/mL (≈ 0.0166 µM)	0.012 µg/mL (≈ 0.0331 µM)	0.005 µg/mL (≈ 0.0138 µM)	0.008 µg/mL (≈ 0.0221 µM)	0.009 µg/mL (≈ 0.0248 µM)		0.46 µg/mL	
O=C(c1ccnn1-c1ccccc1)N1CCN(c2cccc(O)c2)CC1 [Compound 16, [4-(3-Hydroxyphenyl)piperazin-1-yl]-(2-phenyl-2H-pyrazol-3-yl)methanone]	> 3.16 µg/mL	0.064 µg/mL (≈ 0.184 µM)	0.147 µg/mL (≈ 0.422 µM)	0.087 µg/mL (≈ 0.25 µM)	0.082 µg/mL (≈ 0.235 µM)	0.1 µg/mL (≈ 0.287 µM)		4.20 µg/mL	
